Assay results published in the kinase profiling compilation of Christmann-Franck et al. (2016).

Legend:
CDK14 (human) = CDK14 (human) (UniProt O94921)
EPHA4 (human) = EPHA4 (human) (UniProt P54764)
MAP2K2 (human) = MAP2K2 (human) (UniProt P36507)
MAPK9 (human) = MAPK9 (human) (UniProt P45984)
NEK7 (human) = NEK7 (human) (UniProt Q8TDX7)
PIK3C2B (human) = PIK3C2B (human) (UniProt O00750)
RPS6KA4 KD1 KD2 (human) = RPS6KA4 KD1 KD2 (human) (UniProt O75676)
TESK1 (human) = TESK1 (human) (UniProt Q15569)
TESK1 (human), sequence (Q15569 whole entry, looked up): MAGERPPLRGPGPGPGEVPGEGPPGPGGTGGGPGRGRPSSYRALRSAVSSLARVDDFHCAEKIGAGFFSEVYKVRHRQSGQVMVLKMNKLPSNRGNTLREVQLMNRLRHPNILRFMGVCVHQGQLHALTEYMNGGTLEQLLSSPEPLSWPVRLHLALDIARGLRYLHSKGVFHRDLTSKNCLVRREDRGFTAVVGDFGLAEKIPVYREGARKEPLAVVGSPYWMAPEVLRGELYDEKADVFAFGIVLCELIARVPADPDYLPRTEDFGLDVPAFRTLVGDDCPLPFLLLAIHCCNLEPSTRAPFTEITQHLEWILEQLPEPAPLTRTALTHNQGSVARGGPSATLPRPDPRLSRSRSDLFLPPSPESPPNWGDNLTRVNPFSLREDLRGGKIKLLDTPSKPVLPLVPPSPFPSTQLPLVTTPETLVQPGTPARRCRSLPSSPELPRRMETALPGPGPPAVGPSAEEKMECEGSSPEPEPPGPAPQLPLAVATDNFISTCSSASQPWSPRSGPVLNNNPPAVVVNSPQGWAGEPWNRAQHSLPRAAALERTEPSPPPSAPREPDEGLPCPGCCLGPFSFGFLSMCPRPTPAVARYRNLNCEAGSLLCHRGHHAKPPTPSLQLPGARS

MAPK9 (human), sequence (P45984 whole entry, looked up): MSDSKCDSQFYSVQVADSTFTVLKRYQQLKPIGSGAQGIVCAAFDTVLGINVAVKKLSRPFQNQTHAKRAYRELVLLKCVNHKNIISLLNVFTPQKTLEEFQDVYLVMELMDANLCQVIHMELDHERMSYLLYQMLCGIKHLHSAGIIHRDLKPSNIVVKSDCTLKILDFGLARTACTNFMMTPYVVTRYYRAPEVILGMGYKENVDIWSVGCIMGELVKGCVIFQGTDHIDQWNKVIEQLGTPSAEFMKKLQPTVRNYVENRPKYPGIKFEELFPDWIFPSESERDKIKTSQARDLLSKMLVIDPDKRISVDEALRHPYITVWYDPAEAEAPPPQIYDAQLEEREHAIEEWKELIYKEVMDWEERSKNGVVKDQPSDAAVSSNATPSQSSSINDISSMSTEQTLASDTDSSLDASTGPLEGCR
MAP2K2 (human), sequence (P36507 whole entry, looked up): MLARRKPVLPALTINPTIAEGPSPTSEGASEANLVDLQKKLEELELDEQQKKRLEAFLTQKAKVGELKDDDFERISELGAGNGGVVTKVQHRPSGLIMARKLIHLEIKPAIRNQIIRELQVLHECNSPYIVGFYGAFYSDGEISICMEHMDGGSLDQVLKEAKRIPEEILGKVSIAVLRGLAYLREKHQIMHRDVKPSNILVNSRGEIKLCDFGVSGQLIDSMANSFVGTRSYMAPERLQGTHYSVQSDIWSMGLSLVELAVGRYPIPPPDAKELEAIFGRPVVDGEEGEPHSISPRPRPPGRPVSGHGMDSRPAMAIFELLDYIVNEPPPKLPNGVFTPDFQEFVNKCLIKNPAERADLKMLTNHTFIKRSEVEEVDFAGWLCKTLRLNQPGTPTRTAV
PIK3C2B (human), sequence (O00750 whole entry, looked up): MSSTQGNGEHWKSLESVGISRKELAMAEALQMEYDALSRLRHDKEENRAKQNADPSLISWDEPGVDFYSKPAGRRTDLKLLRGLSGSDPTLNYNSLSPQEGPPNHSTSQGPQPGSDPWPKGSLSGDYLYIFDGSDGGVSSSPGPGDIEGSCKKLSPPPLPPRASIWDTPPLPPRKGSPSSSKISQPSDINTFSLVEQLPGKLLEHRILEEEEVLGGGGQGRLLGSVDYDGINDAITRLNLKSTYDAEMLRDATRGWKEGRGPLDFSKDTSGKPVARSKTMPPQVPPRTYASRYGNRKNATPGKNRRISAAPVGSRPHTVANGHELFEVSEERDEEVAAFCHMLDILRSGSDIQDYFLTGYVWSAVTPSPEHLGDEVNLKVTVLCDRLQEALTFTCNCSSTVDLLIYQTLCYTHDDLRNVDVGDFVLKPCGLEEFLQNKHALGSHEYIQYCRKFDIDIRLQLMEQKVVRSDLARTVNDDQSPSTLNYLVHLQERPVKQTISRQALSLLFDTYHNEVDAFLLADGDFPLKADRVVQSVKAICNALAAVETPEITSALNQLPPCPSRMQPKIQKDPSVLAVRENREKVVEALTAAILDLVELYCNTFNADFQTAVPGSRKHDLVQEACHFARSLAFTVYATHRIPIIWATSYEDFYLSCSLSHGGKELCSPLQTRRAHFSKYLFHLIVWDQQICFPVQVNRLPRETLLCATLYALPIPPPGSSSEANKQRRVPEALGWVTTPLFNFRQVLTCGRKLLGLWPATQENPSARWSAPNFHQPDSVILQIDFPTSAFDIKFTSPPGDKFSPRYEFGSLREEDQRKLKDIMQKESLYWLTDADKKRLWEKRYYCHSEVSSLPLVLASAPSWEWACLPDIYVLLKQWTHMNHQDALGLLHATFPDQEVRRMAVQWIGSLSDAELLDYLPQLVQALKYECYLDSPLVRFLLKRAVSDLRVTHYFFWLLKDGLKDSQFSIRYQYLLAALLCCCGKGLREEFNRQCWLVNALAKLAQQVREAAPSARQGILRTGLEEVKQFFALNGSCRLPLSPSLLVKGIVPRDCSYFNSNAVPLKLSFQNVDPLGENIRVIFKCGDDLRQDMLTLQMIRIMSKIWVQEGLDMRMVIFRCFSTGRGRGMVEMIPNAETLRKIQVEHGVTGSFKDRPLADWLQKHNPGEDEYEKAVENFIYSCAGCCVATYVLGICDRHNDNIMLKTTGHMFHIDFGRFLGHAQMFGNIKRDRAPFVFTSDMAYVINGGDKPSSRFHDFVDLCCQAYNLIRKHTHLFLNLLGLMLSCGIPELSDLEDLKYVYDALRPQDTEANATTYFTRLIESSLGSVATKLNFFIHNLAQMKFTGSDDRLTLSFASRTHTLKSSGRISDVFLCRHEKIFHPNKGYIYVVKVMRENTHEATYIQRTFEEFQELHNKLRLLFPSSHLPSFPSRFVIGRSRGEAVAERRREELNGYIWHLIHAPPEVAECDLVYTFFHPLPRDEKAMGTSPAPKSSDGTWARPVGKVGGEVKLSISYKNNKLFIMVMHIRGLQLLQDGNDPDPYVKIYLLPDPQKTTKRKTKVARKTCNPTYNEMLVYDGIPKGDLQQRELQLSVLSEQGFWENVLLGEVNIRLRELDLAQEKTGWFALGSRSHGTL
EPHA4 (human), sequence (P54764 whole entry, looked up): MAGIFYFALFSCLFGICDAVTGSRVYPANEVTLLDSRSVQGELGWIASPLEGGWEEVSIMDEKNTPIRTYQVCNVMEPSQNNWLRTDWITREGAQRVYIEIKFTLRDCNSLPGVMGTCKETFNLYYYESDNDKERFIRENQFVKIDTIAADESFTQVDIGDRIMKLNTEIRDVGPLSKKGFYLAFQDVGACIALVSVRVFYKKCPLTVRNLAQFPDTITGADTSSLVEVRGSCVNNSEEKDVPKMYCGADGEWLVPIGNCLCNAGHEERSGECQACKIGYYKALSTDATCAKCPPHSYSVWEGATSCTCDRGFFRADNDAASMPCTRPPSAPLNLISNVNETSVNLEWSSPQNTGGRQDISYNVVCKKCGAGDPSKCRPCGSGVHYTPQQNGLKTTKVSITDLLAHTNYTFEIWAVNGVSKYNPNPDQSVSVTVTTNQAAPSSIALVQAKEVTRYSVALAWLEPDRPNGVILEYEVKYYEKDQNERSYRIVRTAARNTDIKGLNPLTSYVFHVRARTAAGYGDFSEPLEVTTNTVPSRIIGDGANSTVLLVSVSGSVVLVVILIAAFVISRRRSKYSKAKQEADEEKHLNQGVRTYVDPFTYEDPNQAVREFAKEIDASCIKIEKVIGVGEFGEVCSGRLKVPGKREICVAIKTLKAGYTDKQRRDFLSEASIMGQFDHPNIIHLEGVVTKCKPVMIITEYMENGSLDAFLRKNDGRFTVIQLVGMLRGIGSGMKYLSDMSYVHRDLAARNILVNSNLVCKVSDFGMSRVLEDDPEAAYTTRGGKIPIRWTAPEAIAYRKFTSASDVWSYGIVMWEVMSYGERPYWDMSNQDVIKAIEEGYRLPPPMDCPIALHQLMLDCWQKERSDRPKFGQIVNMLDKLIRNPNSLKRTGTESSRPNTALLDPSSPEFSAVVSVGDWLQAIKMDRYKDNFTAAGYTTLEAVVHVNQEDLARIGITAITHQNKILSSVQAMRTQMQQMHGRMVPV
NEK7 (human), sequence (Q8TDX7 whole entry, looked up): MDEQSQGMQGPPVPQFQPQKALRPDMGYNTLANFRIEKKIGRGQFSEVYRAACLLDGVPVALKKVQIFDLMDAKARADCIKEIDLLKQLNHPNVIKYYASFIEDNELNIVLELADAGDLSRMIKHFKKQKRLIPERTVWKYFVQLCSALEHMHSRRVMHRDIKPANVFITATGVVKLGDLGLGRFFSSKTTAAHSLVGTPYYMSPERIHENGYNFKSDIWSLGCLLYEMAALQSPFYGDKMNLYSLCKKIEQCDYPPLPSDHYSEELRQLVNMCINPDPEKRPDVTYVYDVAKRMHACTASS
CDK14 (human), sequence (O94921 whole entry, looked up): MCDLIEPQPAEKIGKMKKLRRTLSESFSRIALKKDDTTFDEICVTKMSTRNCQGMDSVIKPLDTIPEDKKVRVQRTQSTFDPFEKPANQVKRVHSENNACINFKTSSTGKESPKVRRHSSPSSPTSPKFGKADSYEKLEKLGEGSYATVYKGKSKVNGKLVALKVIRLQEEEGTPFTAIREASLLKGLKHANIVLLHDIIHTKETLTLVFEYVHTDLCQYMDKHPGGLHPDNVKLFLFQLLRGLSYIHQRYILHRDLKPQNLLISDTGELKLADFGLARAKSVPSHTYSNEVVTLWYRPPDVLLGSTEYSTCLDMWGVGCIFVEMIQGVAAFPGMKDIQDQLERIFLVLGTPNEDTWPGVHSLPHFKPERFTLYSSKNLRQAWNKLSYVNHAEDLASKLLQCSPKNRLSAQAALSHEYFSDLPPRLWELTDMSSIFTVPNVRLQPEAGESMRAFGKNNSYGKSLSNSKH

IC50 (CDK14 (human)): 2.96 µM | IC50 (EPHA4 (human)): > 10 µM | IC50 (MAP2K2 (human)): > 10 µM | IC50 (MAPK9 (human)): > 10 µM | IC50 (NEK7 (human)): > 10 µM | IC50 (PIK3C2B (human)): > 10 µM | IC50 (RPS6KA4 KD1 KD2 (human)): 6.42 µM | IC50 (TESK1 (human)): > 10 µM
SMILES: CN1CC[C@H](c2c(O)cc(O)c3c(=O)cc(-c4ccccc4Cl)oc23)[C@H](O)C1
